Reference: ChEMBL document CHEMBL4622951, “Chemical constituents of Callistemon citrinus from Egypt and their antiausterity activity against PANC-1 human pancreatic cancer cell line” (2020)
Calls of active or inactive are those of the source. The calls are words filed in the database; no cut-off is given here.

Legend:
PANC-1 [1] = assay: Cytotoxicity against human PANC1 cells in nutrient-deprived medium; assay type: functional
PANC-1 [2] = assay: Inhibition of cell migration of human PANC1 cells at 10 uM measured after 24 hrs by wound healing assay (reference value: 46 %); assay type: functional; details: PANC-1, 24 h
PANC-1 [3] = assay: Inhibition of colony formation of human PANC1 cells at 2.5 to 10 uM incubated for 24 hrs followed by compound washout and subsequent incubation for 10 days by crystal violet staining based assay; assay type: functional, cell-based
PANC-1 [4] = assay: Inhibition of cell migration of human PANC1 cells at 10 uM measured after 12 hrs by wound healing assay (reference value: 73 %); assay type: functional; details: PANC-1, 12 h
PANC-1 [5] = assay: Inhibition of cell migration of human PANC1 cells measured upto 48 hrs by wound healing assay; assay type: functional, cell-based
PANC-1 [6] = assay: Inhibition of cell migration of human PANC1 cells at 20 uM measured after 12 hrs by wound healing assay (reference value: 73 %); assay type: functional; details: PANC-1, 12 h
PANC-1 [7] = assay: Inhibition of cell migration of human PANC1 cells at 20 uM measured after 36 hrs by wound healing assay (reference value: 100 %); assay type: functional; details: PANC-1, 36 h
PANC-1 [8] = assay: Inhibition of cell migration of human PANC1 cells at 20 uM measured after 24 hrs by wound healing assay (reference value: 46 %); assay type: functional; details: PANC-1, 24 h
PANC-1 [9] = assay: Inhibition of cell migration of human PANC1 cells at 10 uM measured after 48 hrs by wound healing assay (reference value: 100 %); assay type: functional; details: PANC-1, 48 h
PANC-1 [10] = assay: Induction of apoptosis in human PANC1 cells assessed as decrease in membrane integrity at 1 nM incubated for 24 hrs by ethidium bromide and acridine orange based phase contrast microscopy analysis; assay type: functional, cell-based
PANC-1 [11] = assay: Inhibition of cell migration of human PANC1 cells at 20 uM measured after 48 hrs by wound healing assay (reference value: 100 %); assay type: functional; details: PANC-1, 48 h
PANC-1 [12] = assay: Inhibition of cell migration of human PANC1 cells at 10 uM measured after 36 hrs by wound healing assay (reference value: 100 %); assay type: functional; details: PANC-1, 36 h

With `C[C@@H]1CC[C@@]23CC[C@]4(C)[C@@](C=C[C@@H]5[C@@]6(C)CC[C@H](O)C(C)(C)[C@@H]6CC[C@]54C)(OC2=O)C3[C@H]1C` (stereo not given in full) the PC50 (PANC-1 [1]) was 0.4 µM.

`COc1cc(C[C@H]2C(=O)OC[C@@H]2Cc2ccc(OC)c(OC)c2)ccc1O` [ARCTIGENIN] showed a PC50 (PANC-1 [1]) of 0.7 µM.

Work on `CC1(C)CC[C@]2(CO)CC[C@]3(C)C(=CC[C@@H]4[C@@]5(C)CC[C@H](O)C(C)(C)[C@@H]5CC[C@]43C)[C@@H]2C1` [ERYTHRODIOL] yielded a PC50 (PANC-1 [1]) of 0.2 µM.

For `CC(C)CC(=O)c1c(O)c2c(c([C@H](C3=C(O)C(C)(C)C(=O)C(C)(C)C3=O)C(C)C)c1O)O[C@]1(C)C=C[C@@H](C(C)C)C[C@H]21`, the inhibition at 10 µM (PANC-1 [2]) was 76%, the inhibition (PANC-1 [3]) was “Active” and the inhibition at 10 µM (PANC-1 [4]) was 87%. The inhibition (PANC-1 [5]) was “Dose-dependent effect”, the inhibition at 20 µM (PANC-1 [6]) was 96% and the inhibition at 20 µM (PANC-1 [7]) was 89%. For the same molecule, the inhibition at 20 µM (PANC-1 [8]) was 94%, the inhibition at 10 µM (PANC-1 [9]) was 65% and the Activity (PANC-1 [10]) was “Active”. The inhibition at 20 µM (PANC-1 [11]) was 80% and the inhibition at 10 µM (PANC-1 [12]) was 67%.

With `C[C@H]1[C@H](C)CC[C@]2(CO)CC[C@]3(C)C(=CC[C@@H]4[C@@]5(C)CC[C@H](O)C(C)(C)[C@@H]5CC[C@]43C)[C@H]12` [UVAOL] the PC50 (PANC-1 [1]) was 5.2 µM.

`C=C(C)[C@@H]1CC[C@]2(C(=O)O)CC[C@]3(C)[C@H](CC[C@@H]4[C@@]5(C)CC[C@H](O)C(C)(C)[C@@H]5CC[C@]43C)[C@@H]12` [BETULINIC ACID] gave a PC50 (PANC-1 [1]) of 15.2 µM.

For `C=C(C)[C@@H]1CC[C@]2(CO)CC[C@]3(C)[C@H](CC[C@@H]4[C@@]5(C)CC[C@H](O)C(C)(C)[C@@H]5CC[C@]43C)[C@@H]12` [BETULIN], the PC50 (PANC-1 [1]) was 0.7 µM.

Work on `CC(=O)[C@@H]1CC[C@]2(C(=O)O)CC[C@]3(C)[C@H](CC[C@@H]4[C@@]5(C)CC[C@H](O)C(C)(C)[C@@H]5CC[C@]43C)[C@@H]12` [PLATANIC ACID] yielded a PC50 (PANC-1 [1]) of 14.2 µM.

`CC1(C)CC[C@]2(C(=O)O)CC[C@]3(C)C(=CC[C@@H]4[C@@]5(C)CC[C@H](O)C(C)(C)[C@@H]5CC[C@]43C)[C@@H]2C1` [OLEANOLIC_ACID] was tested, and the PC50 (PANC-1 [1]) was 20.5 µM.

`C[C@H]1[C@H](C)CC[C@]2(C(=O)O)CC[C@]3(C)C(=CC[C@@H]4[C@@]5(C)CC[C@H](O)C(C)(C)[C@@H]5CC[C@]43C)[C@H]12` [URSOLIC ACID] showed a PC50 (PANC-1 [1]) of 13.7 µM.
